Test results taken from US20150164837A1, “USE OF AMPHOTERIC SURFACTANTS FOR THE PREVENTION AND TREATMENT OF PATHOGENIC VAGINAL BIOFILMS IN VAGINAL INFECTIONS” (DR. AUGUST WOLFF GMBH & CO. KG ARZNEIMITTEL, priority 2012, published 2015).

Experiments:
[1] = test system: vaginal biofilm (Gardnerella vaginalis, Atopobium vaginae); conditions: cited from earlier work
[2] = test system: Gardnerella vaginalis biofilms; assay: Crystal violet staining of biofilm mass, forming (t0) and well developed, still growing (t20m) biofilms; format: cell-based, Gardnerella vaginalis (strain ATCC 14018); conditions: for inhibition of biofilm formation / reduction of cell mass (in words): well developed and still growing biofilms (t20m)
Experimental: (§1) The inhibitory effect of amphoteric surfactants on the formation of Gardnerella vaginalis biofilms were tested in biofilms, grown in 96 well tissue culture test plates. Before starting the biofilm experiments, MIC (minimal inhibitory concentration) values for sodium cocoamphoacetate for planktonic growing Gardnerella vaginalis cultures were determined MIC values for sodium cocoamphoacetate against Gardnerella vaginalis had not been reported so far.
(§2) Gardnerella vaginalis (strain ATCC 14018) were grown on Columbia agar plates supplemented with 5% sheep blood, liquid cultures were grown in brain heart infusion broth supplemented with 2% (w/v) gelatine, 0.5% yeast extract, 0.1% starch and 1% D-(+)-glucose at 37° C. and with the addition of 5% CO2.
(§3) For a preculture, bacteria were inoculated from plate or glycerol stock and grew overnight. This preculture was used for starting a new culture. Here the cultivation was performed in microtiter plates in a final volume of […] For testing substances in a forming biofilm (t0), substances were added at this time point. After 20 hours of cultivation, measurements determining the mass of biofilm cells and the biofilm viability were started.
For testing substances in a well developed and further growing biofilm (t20m), medium was gently removed after 20 hours of cultivation and compounds were added in fresh medium for enabling further growth. Incubation was performed for another 20 hours.
At 20 hours (t0) respectively 40 hours of cultivation (t20m) measurements were started, concerning the biofilm formation and viability.
(§4) Crystal violet (CV) staining was used to determine the mass of biofilm cells. For this purpose biofilms grown in 96 well tissue test plates were washed with buffer (PBS, pH of 7.4), dried and stained under shaking with 2% crystal violet in ethanol. After washing with buffer, drying and over night extraction with ethanol, the absorbance (OD620) was measured in a plate reader and the percentage of biomass inhibition was calculated.

[3] = test system: Gardnerella vaginalis biofilms; assay: Live/Dead BacLight viability staining, forming (t0) and well developed, still growing (t20m) biofilms; format: cell-based, Gardnerella vaginalis (strain ATCC 14018); conditions: for inhibition of cell viability (in words): well developed and still growing biofilms (t20m)
Experimental: as §1, §2
as §3, with “started. […]” for “started.”
The viability was determined using the Live/Dead BacLight bacterial viability staining. […] In contrast, propidium iodide penetrates only bacteria with damaged membranes, causing a reduction in the SYTO 9 stain fluorescence when both dyes are present. […] After 15 min of incubation in the dark fluorescence was measured in a microtiter plate reader equipped with detectors and filter sets for monitoring red (630 nm) and green (530 nm) fluorescence. Afterwards the percentage of the reduction of viability was calculated.
The tested substances namely cocoamidopropyl hydroxysultaine, disodium cocamphodiacetate, sodium cocoamphopropionate and sodium lauroamphoacetate were dissolved in fresh media and added to a mature G. vaginalis biofilm (t20m, see Example 1). After another 20 hrs of incubation, the biofilm viability was determined via Live/Dead staining, as described above.

[4] = test system: Gardnerella vaginalis biofilms in the stationary phase; assay: Biomass of biofilms in the stationary phase (compounds added in PBS to 20 hours old biofilms); format: cell-based; conditions: 1 mg/ml to 50 mg/ml
Experimental: as §4, with “calculated. To determine how different concentrations of sodium cocoamphoacetate damage well formed biofilms in the stationary phase, compounds were added in PBS buffer to 20 hours old biofilms and analyzed after further 20 hours of incubation by determining their biomass and viability.” for “calculated.”

**Q.** Which “effect on the vaginal biofilm” value ([1]; 500 mg orally twice daily for 7 days, 18 women) does the source give for `Cc1ncc([N+](=O)[O-])n1CCO` [metronidazole] here?
**A.** did not erase the Gardnerella vaginalis biofilm completely

**Q.** What about the “Nugent Score after treatment” value ([1]; after 7 day treatment with oral metronidazole) of the same compound?
**A.** below 7

**Q.** With disodium cocamphodiacetate as the compound, how does the “inhibition of biofilm formation / reduction of cell mass (in words)” value [2] read?
**A.** reduce the cell mass

**Q.** What about the “inhibition of cell viability (in words)” value [3] of the same compound?
**A.** inhibit the viability

**Q.** For sodium cocoamphoacetate, which “inhibition of biofilm formation” value ([2]; added at the beginning of biofilm cultivation (t0), concentrations of 0.25 mg/ml and higher) is on record?
**A.** completely inhibited

**Q.** What about the “decrease of viability of the bacterial cells” value ([3]; added at the beginning of biofilm cultivation (t0), 0.25 mg/ml to 1 mg/ml) of the same compound?
**A.** 90%

**Q.** What about the “reduction in biofilm formation” value [4] of the same compound?
**A.** 44-65%

**Q.** For sodium lauroamphoacetate, which “inhibition of biofilm formation / reduction of cell mass (in words)” value [2] is on record?
**A.** reduce the cell mass

**Q.** And the “inhibition of cell viability (in words)” value [3]?
**A.** inhibit the viability
